The values that follow come from the METLIN SMRT retention time set (Domingo-Almenara et al. 2019).

This series can be described thus: gradient 5% acetonitrile 3 min, to 50% in 2 min, to 85% in 15 min, held 3 min, 100 µL/min. The following applies: column: Zorbax Extend-C18 2.1 x 50 mm; eluents: water / acetonitrile, 0.1% formic acid. In short, it runs like this: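 Values are retention times taken from adduct peaks that software picked and an analyst inspected. The pure standards were run as mixtures of ~100 molecules on HPLC linked to a quadrupole time-of-flight mass spectrometer, in positive and negative ionization mode. A Zorbax Extend-C18 column (2.1 × 50 mm, 1.8 μm) was used at 100 μL/min with water and acetonitrile, each including 0.1% formic acid.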
As for `COC(=O)c1c(C)[nH]c(C(=O)N2CCC(CC(=O)N3CCN(C4CCCCC4)CC3)CC2)c1C`, the RP-LC retention time is 594 s.
As to `COc1ccccc1-c1nc(C2CC(=O)N(c3ccccc3)C2)no1` (configuration not stated), the RP-LC retention time is 894 s.
Under `O=C(CCC(=O)N1CCNc2ccccc2C1)N1CCOCC1` stands 585 s; under `CCN(CC)c1ncnc2c(-c3ccccc3)cn(CC(=O)NCC3CCCO3)c12` (configuration not stated), 666 s; under `O=C(c1cc(-c2cccc(Cl)c2)nc2ccccc12)N1CCN(c2ccccn2)CC1`, 766 s.
`CS(=O)(=O)Nc1cccc(NC(=O)CCc2c[nH]c3ccccc23)c1`: the RP-LC retention time was determined as 714 s.
On to `CCc1ccc(NC(=O)Cn2cc(C(=O)N3CCCC3)c(=O)c3ccc(C)nc32)cc1`, for which the RP-LC retention time came to 759 s.
Compound `COC(=O)c1cc(S(=O)(=O)N2CCCC2C(=O)Nc2cccc(C#N)c2)cn1C` (configuration not stated) registered an RP-LC retention time of 826 s.
For the compound `CCC(C)NC(=O)CCCn1c(=O)c2cccn2c2ccc(Br)cc21` (configuration not stated), the RP-LC retention time is 894 s.
Under `Cc1ccnc(NC(=O)NCCCSc2nccc(C)n2)n1` stands 643 s; under `Nc1cc(C2CCN(C(=O)NCc3ccc(F)cc3)CC2)no1`, 671 s.
For the compound `CCn1nc(CNC(=O)c2cnccn2)c2ccccc21`, the RP-LC retention time stood at 718 s.
Consider `CS(=O)(=O)c1ccc(-c2cccc(NC(=O)Cc3cccs3)c2)nn1`, for which the RP-LC retention time is 707 s.
Under `CCCCOc1ccc(-c2nc(C3CC(=O)N(c4ccc(CC)cc4)C3)no2)cc1` (configuration not stated) stands 1390 s; under `CC(C)CNC(=O)C1CCN(c2nc3ccc(-c4cncnc4)nc3s2)CC1`, 663 s.
For `CCOc1ccccc1NC(=O)C(=O)NCCc1ccsc1`, the RP-LC retention time was determined as 1020 s.
`CSc1ccccc1NC(=O)C(=O)NCC1(c2cccs2)CCCC1`: the RP-LC retention time was 1280 s.
Under `Cc1ccc(S(=O)(=O)N(C)CCCC(=O)N2CCN(c3ccccn3)CC2)cc1` stands 576 s; under `Cn1nc(C(=O)N2CCCC2)c2c1CCN(C(=O)CCC(=O)N1CCCCCC1)C2`, 664 s.
With `O=c1c2ccccc2c(-c2nc(-c3ccncc3)no2)cn1-c1cccc(Cl)c1`, the RP-LC retention time was 1020 s.
`CCOc1ccc(-c2ccc(=O)n(Cc3nc(-c4cccc(OCC)c4)no3)n2)cc1`: the RP-LC retention time amounted to 1150 s.
For the compound `CSc1cccc(NC(=O)Cc2csc(SCC(=O)Nc3ccc(C)cc3)n2)c1`, the RP-LC retention time was 900 s.
Then `O=C(NCC1CCCCC1)C1CCN(c2cncnc2N2CCOCC2)CC1`, with 644 s; and `CCOC(=O)C1CCN(c2nc(-c3ccc(Cl)cc3)nc3ccccc23)CC1`, with 936 s.
Under `COc1cccc(-c2noc(C3CCCN3C(=O)Nc3ccc(OC)c(F)c3)n2)c1` (configuration not stated) stands 946 s; under `O=C(Cn1ccc2ccccc21)NCCn1nc(-n2ccnc2)ccc1=O`, 546 s.
`CC(Oc1ccc(Cl)cc1Cl)C(=O)NCCn1ncccc1=O` (configuration not stated) gave an RP-LC retention time of 722 s.
Under `COc1ccc(NC(=O)CN2CCc3[nH]c4c(C)c(Cl)ccc4c(=O)c3C2)c(OC)c1` stands 656 s; under `CN(C)c1cccc(-c2nc(C3CC(=O)N(c4ccccc4)C3)no2)c1` (configuration not stated), 1030 s; under `c1ccc(OCc2nc(-c3ccc(-n4ccnc4)nc3)no2)cc1`, 689 s.
Consider `O=C(CCc1nc2ccccc2[nH]1)N1CCC(c2noc(-c3ccncc3)n2)C1` (configuration not stated), for which the RP-LC retention time came out at 557 s.
Under `CNc1cc(C(N)=O)c2cccc(Cl)c2n1` stands 559 s; under `O=C(NCC1CCCO1)c1nc(-c2ccnc(N3CCCCCC3)c2)no1` (configuration not stated), 641 s.
`Cc1ccc2c(c1)N(C(=O)Cn1cnc(-c3nc(-c4ccccc4)cs3)c1)CCO2` came in with an RP-LC retention time of 954 s.
Regarding `Cc1ccc(-c2cn3c(n2)N(C(=O)Cn2ccnc2C)CCC3)cc1`, the RP-LC retention time was determined as 628 s.
For `O=C1Cc2c(-c3ccccc3)cc(-c3cccc(Cl)c3)nc2-c2ccccc2N1`, the RP-LC retention time stood at 1260 s.
In turn, `CCOC(=O)CNC(=O)N1CCc2c([nH]c3ccc(OC)cc23)C1c1ccc(OC)cc1` (configuration not stated) had an RP-LC retention time of 886 s.
`CC1(C(=O)NC2CCCCCCC2)CN(S(C)(=O)=O)CC(=O)N1c1ccc(Cl)cc1` (configuration not stated) showed an RP-LC retention time of 952 s.
`CCNC(=O)c1c2c(nc3ccccc13)CCC2` came in with an RP-LC retention time of 573 s.
The compound `O=C(CN1C(=O)CCC1=O)N(Cc1ccsc1)Cc1ccco1` showed an RP-LC retention time of 710 s.
`CCNC(=O)c1cc2cc(C)ccc2[nH]1`: the RP-LC retention time worked out at 791 s.
Consider `COc1cc(NC(=O)Cc2ccc(S(=O)(=O)C(C)C)cc2)c2ncccc2c1`, for which the RP-LC retention time came to 827 s.
As for `COCCNc1c(-c2ccccc2)nc2sc(C(=O)NC(C)C)c(C)n12`, the RP-LC retention time came to 749 s.
In the case of `COc1cc(NC(=O)C(=O)c2cccn2C)cc(OC)c1`, the RP-LC retention time stood at 976 s.
`O=c1c2c([nH]c3ccc(Cl)cc13)CCN(Cc1ccc(F)cc1)C2` had an RP-LC retention time of 620 s.
The compound `CCC(C)NC(=O)Cn1c(=O)c(=O)n(CC)c2ncccc21` (configuration not stated) had an RP-LC retention time of 618 s.
As to `CN(C[C@@H]1COCCO1)S(=O)(=O)Nc1ccc2ccc3ncc(-c4cnn(C)c4)cc3c(=O)c2c1`, the RP-LC retention time came to 778 s.
Take `COc1ccccc1NC(=O)NC(C(=O)N1CCc2ccccc21)C(C)C` (configuration not stated): the RP-LC retention time stood at 723 s.
Then `Cc1ccc(Cl)cc1NC(=O)N1CCc2nc(-c3ccc(F)cc3)ncc2C1`, with 1030 s.
Compound `Cc1ccc(N2CCC(NC(=O)NC(C)C)C2=O)cc1` (configuration not stated) displayed an RP-LC retention time of 688 s.
Regarding `CC(C)Oc1cncc(C(N)=O)c1`, the RP-LC retention time came to 583 s.
In turn, `Cc1cccc(NC(=O)C2CCN(S(C)(=O)=O)c3cc(Cl)ccc3O2)c1C` (configuration not stated) came in with an RP-LC retention time of 1090 s.
`COc1ccc(NC(=O)N2CCC(N3CCN(Cc4ccccc4)C3=O)CC2)c(OC)c1`: the RP-LC retention time came out at 796 s.
Under `CC1=C(c2ccc(C)cc2)S(=O)(=O)N=C1N1CCC(NC(=O)C2CCC2)CC1` stands 805 s; under `Cc1ccc(C)c(C(=O)N2C[C@H](c3nc(-c4cccnc4)no3)[C@@H](C)C2)c1`, 836 s.
The compound `Cc1cc(C)c(S(=O)(=O)N2CCC(n3cnc4c(C)cccc4c3=O)CC2)cc1C` displayed an RP-LC retention time of 1120 s.
Regarding `Cc1cc(C2CCCN2C(=O)c2cc(F)c(F)cc2Cl)no1` (configuration not stated), the RP-LC retention time worked out at 832 s.
Under `COCCN1C(=O)[C@H]2CN(Cc3cc(OC)cc(OC)c3)C[C@H]2C1=O` stands 598 s.
Then `CCC1CCCCN1C(=O)c1cnc2nc(C)ccc2c1Nc1cc(F)ccc1C` (configuration not stated), with 705 s; and `CCN(C(=O)Cn1nc2cc(C)nc(Nc3ccc(C)c(C)c3)n2c1=O)c1ccccc1`, with 1230 s.
`Cc1ccnc(OCC(=O)NC(C)C)n1` came in with an RP-LC retention time of 586 s.
Take `Cc1ccc2nc(-c3ccc(O)cc3)c(Nc3ccc4c(c3)OCCO4)n2c1`: the RP-LC retention time was found to be 646 s.
The compound `Cc1sc(-c2nnc(C3CC3)o2)cc1NC(=O)Cc1c[nH]c2ccccc12` returned an RP-LC retention time of 877 s.
Take `CC1(C(=O)NC2CCCC2)Cn2c(ccc2-c2ccco2)C(=O)N1Cc1cccnc1` (configuration not stated): the RP-LC retention time was found to be 657 s.
In turn, `CCc1cccc(Nc2ncccc2S(N)(=O)=O)c1` registered an RP-LC retention time of 889 s.
For `O=C(c1cccs1)N1CCN(c2ccc(-c3noc(C4CCC4)n3)cc2)CC1`, the RP-LC retention time was determined as 1070 s.
`COc1ccc(CNC(=O)C2CCN(c3ccc(SCc4ccccc4)nn3)CC2)cc1` gave an RP-LC retention time of 742 s.
Under `O=C1CCc2cc(NC(=O)c3cccnc3)ccc2N1` stands 579 s; under `CCOC(=O)c1nc(N(C)C2CCCCC2)c2ccccc2n1`, 789 s; under `CCCCNC(=O)c1cc(NS(=O)(=O)c2ccc(C(C)(C)C)cc2)cnc1N1CCNCC1`, 706 s.
`Cc1ccc(C)c(NC(=O)Cc2csc(C)n2)c1` came in with an RP-LC retention time of 788 s.
Under `Cc1cc(C(=O)N2C[C@@H](C)[C@H](c3nc(-c4ccccc4)no3)C2)n[nH]1` stands 804 s.
As to `CC1(C)NC(=O)N(CCCCCCN2C(=O)NC(C)(C)C2=O)C1=O`, the RP-LC retention time was found to be 623 s.
In the case of `O=C(NCCc1c[nH]c2ccc(F)cc12)c1cn(-c2ccc(F)cc2)nn1`, the RP-LC retention time was determined as 914 s.
On to `Fc1ccc(Cl)cc1CN1CC(COc2cccnc2)C2(CCOCC2)C1` (configuration not stated), for which the RP-LC retention time amounted to 566 s.
Then `Cn1ncc2c3ccccc3n(CC(=O)NCCc3c[nH]c4ccc(Cl)cc34)c2c1=O`, with 860 s; and `N#Cc1cccc(C(=O)Nc2cnn(-c3ncc(N4CCCC4)cn3)c2)c1`, with 777 s; and `O=c1c(NCc2ccccc2Cl)nc2ccncc2n1Cc1ccccc1`, with 747 s.
The compound `COc1cc2ncnc(Nc3ccc(Cl)cc3F)c2cc1OC` displayed an RP-LC retention time of 681 s.
Then `COc1ccc(C(=O)CN(Cc2ccccc2)C2=NCCS2)cc1`, with 600 s; and `O=C(O)[C@H](CC(=O)N1C[C@H]2CCCC[C@H]2C1)Cc1ccccc1`, with 915 s; and `Cc1ccsc1C(=O)Nc1ccc2ncnc(N3CCCCC3)c2c1`, with 687 s.
